According to ChEMBL document CHEMBL4219250, “Kröhnke pyridines: Rapid and facile access to Mcl-1 inhibitors” (Bioorg Med Chem Lett, 2018):
The source made the active and inactive calls. The rule behind the calls is not given here.

Each molecule was assayed against T1, Induced myeloid leukemia cell differentiation protein Mcl-1 (Homo sapiens, UniProt Q07820) (assay: Displacement of TAMRA-Bak peptide from His6-MBP-tagged recombinant human MCl-1 (172 to 327 residues) expressed in HMS174 (DE3) cells by fluorescence polarization assay).
T1 sequence (Q07820 whole entry, the tested form may be a part): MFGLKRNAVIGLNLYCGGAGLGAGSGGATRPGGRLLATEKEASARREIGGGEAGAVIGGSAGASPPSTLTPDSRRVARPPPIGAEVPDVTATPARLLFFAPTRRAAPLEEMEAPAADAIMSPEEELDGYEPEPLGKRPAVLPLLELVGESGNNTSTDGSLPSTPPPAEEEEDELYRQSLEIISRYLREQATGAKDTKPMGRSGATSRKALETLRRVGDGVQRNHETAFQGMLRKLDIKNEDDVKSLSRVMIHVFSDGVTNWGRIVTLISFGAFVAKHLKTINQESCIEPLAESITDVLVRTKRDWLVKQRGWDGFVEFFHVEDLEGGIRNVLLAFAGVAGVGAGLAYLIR

Row | Ki | SMILES
1 | 38.2 µM | O=C(O)c1cc(-c2ccc(Oc3ccccc3)cc2)cc(-c2ccc3c(c2)OCO3)n1
2 | 7.33 µM | CC(C)Oc1ccc(-c2cc(-c3ccc(Oc4ccccc4)cc3)cc(C(=O)O)n2)cc1
3 | 6.1 µM | O=C(O)c1cc(-c2ccc(Oc3ccccc3)cc2)cc(-c2ccc(OCc3ccccc3)cc2)n1
4 | 19.7 µM | CC(C)Oc1ccc(-c2cc(C(=O)O)nc(-c3ccc(OC(C)C)cc3OC(C)C)c2)cc1
5 | 10.3 µM | O=C(O)c1cc(-c2ccc(Oc3ccccc3)cc2)cc(-c2ccccc2Br)n1
6 | 7.44 µM | O=C(O)c1cc(-c2ccc(Oc3ccccc3)cc2)cc(-c2ccc(Br)cc2)n1
7 | 40 µM | O=C(O)c1cc(-c2ccc(Br)cc2)cc(-c2ccc(Br)cc2)n1
8 | 9.24 µM | O=C(O)c1cc(-c2ccc(Oc3ccccc3)cc2)cc(-c2ccccc2)n1
9 | 9.22 µM | O=C(O)c1cc(-c2ccc(OCc3ccccc3)cc2)cc(-c2ccc(OCc3ccccc3)cc2)n1
10 | 40 µM | COc1ccc(-c2cc(-c3ccc(Br)cc3)cc(C(=O)O)n2)cc1
11 | 40 µM | O=C(O)c1cc(-c2ccc(Br)cc2)cc(-c2ccc(Cl)cc2)n1
12 | 4.43 µM | O=C(O)c1cc(-c2ccc(Br)cc2)nc(-c2ccc(Oc3ccccc3)cc2)c1
13 | > 100 µM | O=C(O)c1cc(-c2ccc(Br)cc2)cc(-c2ccc3c(c2)OCO3)n1
14 | 28.8 µM | CC(C)Oc1ccc(-c2cc(C(=O)O)nc(-c3ccc(OC(C)C)cc3)c2)cc1
15 | 100 µM | O=C(O)c1cc(-c2ccc(Br)cc2)cc(-c2ccccc2)n1
16 | 8.47 µM | O=C(O)c1cc(-c2ccc(Oc3ccccc3)cc2)cc(-c2cccc(Br)c2)n1
17 | 9.77 µM | CC(C)Oc1ccc(-c2cc(C(=O)O)nc(-c3ccc(OCc4ccccc4)cc3)c2)cc1
18 | 10.9 µM | COc1ccc(-c2cc(-c3ccc(Oc4ccccc4)cc3)cc(C(=O)O)n2)cc1
19 | 7.6 µM | O=C(O)c1cc(-c2ccc(Br)cc2)cc(-c2ccc(OCc3ccccc3)cc2)n1
20 | 13.7 µM | O=C(O)c1cc(-c2ccc(Oc3ccccc3)cc2)cc(-c2ccc([N+](=O)[O-])cc2)n1

Each molecule was assayed against T1, Induced myeloid leukemia cell differentiation protein Mcl-1 (assay: Binding affinity to 15N-labeled His6-MBP-tagged recombinant human MCl-1 (172 to 327 residues) expressed in HMS174 (DE3) cells by two-dimensional1H-15N HSQC NMR spectra method).
Assay type: cell-based

Row | Activity | SMILES
21 | Active | O=C(O)c1cc(-c2ccc(Br)cc2)nc(-c2ccc(Oc3ccccc3)cc2)c1
